Measurements published in PubChem BioAssay (NCI).
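Method: 48-hour compound exposure of cells in 96-well plates, five concentrations, linear interpolation of endpoints. The concentration for 50% growth inhibition is given as GI50. At the TGI there is no net growth.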

How the values were obtained:
Assay in all cases: DTP human tumour cell line panel, 48 h
786-0 renal = tested on: 786-0 renal
A498 renal = tested on: A498 renal
A549 NSCLC = tested on: A549 NSCLC
ACHN renal = tested on: ACHN renal
BT-549 breast = tested on: BT-549 breast
CAKI-1 renal = tested on: CAKI-1 renal
CCRF-CEM leukemia = tested on: CCRF-CEM leukemia
COLO 205 colon = tested on: COLO 205 colon
DU-145 prostate = tested on: DU-145 prostate
EKVX NSCLC = tested on: EKVX NSCLC
HCC-2998 colon = tested on: HCC-2998 colon
HCT-116 colon = tested on: HCT-116 colon
HCT-15 colon = tested on: HCT-15 colon
HL-60(TB) leukemia = tested on: HL-60(TB) leukemia
HOP-62 NSCLC = tested on: HOP-62 NSCLC
HOP-92 NSCLC = tested on: HOP-92 NSCLC
HS 578T breast = tested on: HS 578T breast
HT29 colon = tested on: HT29 colon
IGROV1 ovarian = tested on: IGROV1 ovarian
K-562 leukemia = tested on: K-562 leukemia
KM12 colon = tested on: KM12 colon
LOX IMVI melanoma = tested on: LOX IMVI melanoma
M14 melanoma = tested on: M14 melanoma
MALME-3M melanoma = tested on: MALME-3M melanoma
MCF7 breast = tested on: MCF7 breast
MDA-MB-231 breast = tested on: MDA-MB-231 breast
MOLT-4 leukemia = tested on: MOLT-4 leukemia
NCI-H226 lung = tested on: NCI-H226 lung
NCI-H23 lung = tested on: NCI-H23 lung
NCI-H460 lung = tested on: NCI-H460 lung
NCI-H522 lung = tested on: NCI-H522 lung
OVCAR-4 ovarian = tested on: OVCAR-4 ovarian
OVCAR-5 ovarian = tested on: OVCAR-5 ovarian
OVCAR-8 ovarian = tested on: OVCAR-8 ovarian
PC-3 prostate = tested on: PC-3 prostate
RPMI-8226 leukemia = tested on: RPMI-8226 leukemia
RXF 393 renal = tested on: RXF 393 renal
SF-268 CNS = tested on: SF-268 CNS
SF-295 CNS = tested on: SF-295 CNS
SF-539 CNS = tested on: SF-539 CNS
SK-MEL-2 melanoma = tested on: SK-MEL-2 melanoma
SK-MEL-28 melanoma = tested on: SK-MEL-28 melanoma
SK-MEL-5 melanoma = tested on: SK-MEL-5 melanoma
SK-OV-3 ovarian = tested on: SK-OV-3 ovarian
SN12C renal = tested on: SN12C renal
SNB-19 CNS = tested on: SNB-19 CNS
SNB-75 CNS = tested on: SNB-75 CNS
SR leukemia = tested on: SR leukemia
SW-620 colon = tested on: SW-620 colon
TK-10 renal = tested on: TK-10 renal
U251 CNS = tested on: U251 CNS
UACC-257 melanoma = tested on: UACC-257 melanoma
UACC-62 melanoma = tested on: UACC-62 melanoma
UO-31 renal = tested on: UO-31 renal
MDA-MB-435 = tested on: MDA-MB-435
OVCAR-3 ovarian = tested on: OVCAR-3 ovarian

CCOC(=O)c1ccc(NC(=O)Nc2nccs2)cc1
GI50 (786-0 renal): 716 nM | TGI (786-0 renal): > 46.4 µM | GI50 (A498 renal): 79.5 nM | TGI (A498 renal): 568 nM | GI50 (A549 NSCLC): 72.5 nM | GI50 (ACHN renal): 297 nM | TGI (ACHN renal): > 100 µM | GI50 (BT-549 breast): 328 nM | TGI (BT-549 breast): 2540 nM | GI50 (CAKI-1 renal): 398 nM | TGI (CAKI-1 renal): 44.8 µM | GI50 (CCRF-CEM leukemia): 448 nM | TGI (CCRF-CEM leukemia): > 100 µM | GI50 (COLO 205 colon): 33.6 nM | TGI (COLO 205 colon): 117 nM | GI50 (DU-145 prostate): 107 nM | TGI (DU-145 prostate): 690 nM | GI50 (EKVX NSCLC): 162 nM | TGI (EKVX NSCLC): > 96.6 µM | GI50 (HCC-2998 colon): 204 nM | TGI (HCC-2998 colon): 4.45 µM | GI50 (HCT-116 colon): 60.5 nM | GI50 (HCT-15 colon): 36.4 nM | TGI (HCT-15 colon): > 45.5 µM | GI50 (HL-60(TB) leukemia): 459 nM | TGI (HL-60(TB) leukemia): 7.76 µM | GI50 (HOP-62 NSCLC): 2510 nM | TGI (HOP-62 NSCLC): > 45.1 µM | GI50 (HOP-92 NSCLC): 5.25 µM | TGI (HOP-92 NSCLC): 40.4 µM | GI50 (HS 578T breast): 33 nM | TGI (HS 578T breast): 33.2 µM | GI50 (HT29 colon): 33.6 nM | GI50 (IGROV1 ovarian): 64 nM | TGI (IGROV1 ovarian): 24 µM | GI50 (K-562 leukemia): 31.4 nM | TGI (K-562 leukemia): 30.1 µM | GI50 (KM12 colon): 110 nM | TGI (KM12 colon): 1010 nM | GI50 (LOX IMVI melanoma): 98.7 nM | TGI (LOX IMVI melanoma): 50.1 µM | GI50 (M14 melanoma): 34.6 nM | TGI (M14 melanoma): > 100 µM | GI50 (MALME-3M melanoma): 1240 nM | TGI (MALME-3M melanoma): 31.5 µM | GI50 (MCF7 breast): 30.9 nM | TGI (MCF7 breast): 13.9 µM | GI50 (MDA-MB-231 breast): 275 nM | TGI (MDA-MB-231 breast): 2980 nM | GI50 (MOLT-4 leukemia): 379 nM | TGI (MOLT-4 leukemia): 31.3 µM | GI50 (NCI-H226 lung): 363 nM | GI50 (NCI-H23 lung): 66.8 nM | TGI (NCI-H23 lung): 36.6 µM | GI50 (NCI-H460 lung): 37.5 nM | TGI (NCI-H460 lung): 2060 nM | GI50 (NCI-H522 lung): 72.4 nM | TGI (NCI-H522 lung): 688 nM | GI50 (OVCAR-4 ovarian): 63.1 nM | TGI (OVCAR-4 ovarian): > 66.3 µM | GI50 (OVCAR-5 ovarian): 1100 nM | TGI (OVCAR-5 ovarian): > 100 µM | GI50 (OVCAR-8 ovarian): 53.2 nM | TGI (OVCAR-8 ovarian): 3.17 µM | GI50 (PC-3 prostate): 443 nM | TGI (PC-3 prostate): 39.8 µM | GI50 (RPMI-8226 leukemia): 698 nM | TGI (RPMI-8226 leukemia): > 39.5 µM | GI50 (RXF 393 renal): 43.4 nM | TGI (RXF 393 renal): > 100 µM | GI50 (SF-268 CNS): 201 nM | TGI (SF-268 CNS): 16.9 µM | GI50 (SF-295 CNS): 627 nM | TGI (SF-295 CNS): 15.5 µM | GI50 (SF-539 CNS): 106 nM | TGI (SF-539 CNS): 385 nM | GI50 (SK-MEL-2 melanoma): 819 nM | TGI (SK-MEL-2 melanoma): 46.8 µM | GI50 (SK-MEL-28 melanoma): 71.2 nM | TGI (SK-MEL-28 melanoma): 25.8 µM | GI50 (SK-MEL-5 melanoma): 28.5 nM | TGI (SK-MEL-5 melanoma): 211 nM | GI50 (SK-OV-3 ovarian): 44.5 nM | TGI (SK-OV-3 ovarian): 9.76 µM | GI50 (SN12C renal): 371 nM | TGI (SN12C renal): 27.1 µM | GI50 (SNB-19 CNS): 128 nM | TGI (SNB-19 CNS): 42.8 µM | GI50 (SNB-75 CNS): 1550 nM | TGI (SNB-75 CNS): > 48.9 µM | GI50 (SR leukemia): 30.2 nM | GI50 (SW-620 colon): 28.3 nM | TGI (SW-620 colon): 35.6 µM | GI50 (TK-10 renal): 38.1 nM | TGI (TK-10 renal): 669 nM | GI50 (U251 CNS): 47.8 nM | TGI (U251 CNS): 25.1 µM | GI50 (UACC-257 melanoma): 11.1 µM | TGI (UACC-257 melanoma): 24.1 µM | GI50 (UACC-62 melanoma): 44 nM | TGI (UACC-62 melanoma): 20.4 µM | GI50 (UO-31 renal): 490 nM | TGI (UO-31 renal): 57.8 µM

N#Cc1nc(-c2cccnc2)oc1N
TGI (786-0 renal): > 100 µM | TGI (A498 renal): > 100000 nM | TGI (ACHN renal): > 100 µM | TGI (CAKI-1 renal): > 100 µM | TGI (CCRF-CEM leukemia): > 100 µM | TGI (COLO 205 colon): > 100000 nM | TGI (DU-145 prostate): > 100000 nM | TGI (EKVX NSCLC): > 100 µM | TGI (HCC-2998 colon): > 100 µM | TGI (HCT-116 colon): > 100 µM | TGI (HCT-15 colon): > 100 µM | TGI (HL-60(TB) leukemia): > 100 µM | TGI (HOP-62 NSCLC): > 100 µM | TGI (HOP-92 NSCLC): > 100 µM | TGI (HS 578T breast): > 100 µM | TGI (HT29 colon): > 100 µM | TGI (IGROV1 ovarian): > 100 µM | TGI (K-562 leukemia): > 100 µM | TGI (KM12 colon): > 100000 nM | TGI (LOX IMVI melanoma): > 100 µM | TGI (MALME-3M melanoma): > 100 µM | TGI (MDA-MB-231 breast): > 100000 nM | TGI (MDA-MB-435): > 100 µM | TGI (MOLT-4 leukemia): > 100 µM | TGI (NCI-H226 lung): > 100 µM | TGI (NCI-H460 lung): > 100000 nM | TGI (NCI-H522 lung): > 100000 nM | TGI (OVCAR-3 ovarian): > 100 µM | TGI (OVCAR-4 ovarian): > 100 µM | TGI (OVCAR-5 ovarian): > 100 µM | TGI (PC-3 prostate): > 100 µM | TGI (RPMI-8226 leukemia): > 100 µM | TGI (RXF 393 renal): > 100 µM | TGI (SF-268 CNS): > 100 µM | TGI (SK-MEL-2 melanoma): > 100 µM | TGI (SK-MEL-28 melanoma): > 100 µM | TGI (SK-MEL-5 melanoma): > 100000 nM | TGI (SK-OV-3 ovarian): > 100 µM | TGI (SN12C renal): > 100 µM | TGI (SNB-19 CNS): > 100 µM | TGI (SR leukemia): > 100 µM | TGI (SW-620 colon): > 100 µM | TGI (TK-10 renal): > 100000 nM | TGI (U251 CNS): > 100 µM | TGI (UACC-257 melanoma): > 100 µM | TGI (UACC-62 melanoma): > 100 µM | TGI (UO-31 renal): > 100 µM
